In PMC11056982, “Paraptotic Cell Death as an Unprecedented Mode of Action Observed for New Bipyridine-Silver(I) Compounds Bearing Phosphane Coligands” (Journal of Medicinal Chemistry, 2024):

Columns and labels:
MES-OV/CBP = assay: MTT viability assay in carboplatin-resistant MES-OV/CBP cells; assay type: cell-based, human; conditions: 72 h; resistant subline vs parental line
Procedure: (§1) Cells were seeded (2 × 10^4 cells/well for HCT116, HCT116/OxR, 3 × 10^4 cells/well for HCT116 p53KO, 4 × 10^4 cells/well for MES-OV, SK-OV-3, and their respective CBP resistant counterparts) in 100 μL/well in 96-well plates and allowed to attach for 24 h at 37 °C and 5% CO2. Compounds were first dissolved in DMSO to a 10 mM stock solution and then further diluted in a growth medium (DMSO concentration <1%). After 24 h, cells were treated with 100 μL of different drugs dilutions in triplicates with the final concentrations of 0, 0.01, 0.05, 0.075, 0.1, 0.5, 0.75, 1, 2.5, 5, 7.5, and 10 μM depending on the compound and the cell line.

SK-OV-3/CBP = assay: MTT viability assay in carboplatin-resistant SK-OV-3/CBP cells; assay type: cell-based, human; conditions: 72 h; resistant subline vs parental line
Procedure: as §1

HCT116 WT/OxR = assay: MTT viability assay in oxaliplatin-resistant HCT116 WT/OxR cells; assay type: cell-based, human; conditions: 72 h; resistant subline vs parental line
Procedure: as §1

MES-OV cells [1] = assay: ROS detection by DCF-DA flow cytometry in MES-OV; assay type: cell-based, human; conditions: 24 h
Procedure: Cells were seeded 5 × 10^5 cells/mL in six-well plates. After 24 h treatment with the indicated concentration, cells were incubated with 10 μM 2′,7′-dichlorofluorescein diacetate (DCFH-DA, Sigma-Aldrich) in Hank’s balanced salt solution for 1 h at 37 °C. Subsequently, flow cytometry (with BD LSR Fortessa instrument, BD Biosciences, Franklin Lakes, NJ, USA) was performed to measure the median fluorescence signal of 20,000 single cells per sample. FlowJo (BD Biosciences, San Jose, CA, USA) and GraphPad Prism software (GraphPad Software Inc., San Diego, CA, USA) were to analyze the data.

[2] = Stability in PBS by LC-ESI(+)-HRMS/MS; assay type: physicochemical; conditions: 80 μM in PBS, monitored 48 h
Procedure: For the stability evaluation in PBS, 10 mM solutions of complexes 1, 4, and 7 were first prepared in DMSO. Two microliters of this solution were then added to PBS (250 μL) for a total concentration of 80 μM. Following centrifugation for 10 min at 3000 rpm, the resulting solutions were monitored by LC-ESI(+)-MS and LC-ESI(+)-HRMS for a period of 48 h.

MES-OV cells [3] = assay: Mitochondrial membrane potential by JC-1 stain (flow cytometry); assay type: cell-based, human; conditions: 24 h, 10 μM
Procedure: (§2) Cells were seeded in a density of (2–4) × 10^5 cells/well in six-well plates and in 1 mL culture medium containing 10% FBS. After 24 h recovery, cells were treated with the indicated compounds and concentrations. Next, the supernatant was collected followed by trypsinization of the cells and centrifugation at 300g for 5 min. In the following protocols, cells were stained with annexin V (AV) and propidium iodide (PI) for cell death analysis, with only PI for cell cycle analysis, or with 10 μg mL^–1 JC-1 for evaluation of the mitochondrial membrane potential as previously described.[54],[55]

SK-OV-3 and MES-OV cells = assay: Cell cycle distribution (PI stain, flow cytometry); assay type: cell-based, human; conditions: 10 μM, 24 h
Procedure: as §2

MES-OV cells [4] = assay: Phase-contrast microscopy of cytoplasmic vacuoles; assay type: cell-based, human; conditions: 6 and 24 h treatment
Procedure: Cells were seeded 5 × 10^5/well in six-well plates after 24 h recovery treatment with compounds 1, 4, and 7 was performed with the indicated concentrations. After 6 and 24 h, phase-contrast images of the cells were taken with a Zeiss Primovert microscope (20× magnification). To determinate the percentage of vacuolated cells, images (three images each condition) were analyzed by ImageJ, and vacuolated cells were counted.

recombinant rat TrxR = target: T1, recombinant rat TrxR (Rattus norvegicus, UniProt O89049); assay: Inhibition of mammalian TrxR (microplate reader-based DTNB assay); assay type: biochemical; conditions: cell-free assay
T1 construct: purchased Cayman Chemical
T1 sequence (O89049 1-499): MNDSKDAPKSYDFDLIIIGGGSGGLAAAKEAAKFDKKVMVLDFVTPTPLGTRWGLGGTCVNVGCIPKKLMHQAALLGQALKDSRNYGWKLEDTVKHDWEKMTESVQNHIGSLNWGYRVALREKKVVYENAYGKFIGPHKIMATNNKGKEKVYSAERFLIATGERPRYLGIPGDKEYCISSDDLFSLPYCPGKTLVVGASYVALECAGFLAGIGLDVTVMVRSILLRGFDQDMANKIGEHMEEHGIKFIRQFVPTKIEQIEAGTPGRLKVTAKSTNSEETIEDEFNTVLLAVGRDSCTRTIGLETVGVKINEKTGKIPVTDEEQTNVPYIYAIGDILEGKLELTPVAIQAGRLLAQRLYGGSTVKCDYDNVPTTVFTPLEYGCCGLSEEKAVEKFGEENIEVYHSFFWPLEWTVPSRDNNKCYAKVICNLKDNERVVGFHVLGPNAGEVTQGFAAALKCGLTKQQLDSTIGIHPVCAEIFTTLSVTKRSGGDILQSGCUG
Procedure: To determine the inhibition of mammalian TrxR, an established microplate reader-based assay was performed. For this purpose, commercially available recombinant rat TrxR (from Cayman Chemical) was used and diluted with distilled water to achieve a concentration of 0.12 U mL^–1. The compounds were freshly dissolved as stock solutions in DMSO. Aliquots (25 μL) of the enzyme solution and 25 μL of potassium phosphate buffer (pH 7.0) containing the compounds in graded concentrations (1% DMSO) were mixed. Positive controls were composed of 25 μL aliquots of the enzyme solution mixed with 25 μL 1% DMSO in buffer solution (no compounds). The final concentration of DMSO was 0.5% v/v in all samples. The blank solution was the highest used concentration of the compound in 0.5% DMSO in buffer solution (no enzyme). All resulting solutions were incubated with moderate shaking for 75 min at 37 °C in a 96-well plate. […] After proper mixing, the formation of 2-nitro-5-thiobenzoate (5-TNB) was monitored with a microplate reader at 405 nm 10 times in 35 s intervals for about 6 min. The increase in 5-TNB concentration over time followed a linear trend, and the enzymatic activities were calculated as the slopes (increase in absorbance per second) thereof. […] For the absorption measurements in the enzyme assay, a PerkinElmer 2030 Multilabel Reader VICTORTMX4 was used.

MES-OV cells [5] = assay: TEM analysis of subcellular morphology; assay type: cell-based, human; conditions: 24 h treatment
Procedure: MES-OV Cells were seeded (8 × 10^5 cells/mL) in […] in six-well plates. After 24 h, cells were treated with the selected compounds at the indicated concentration for another 24 h. Afterward, cells were collected, pelleted, and fixed in a solution of 2.5% glutaraldehyde and 2% paraformaldehyde in 0.1 M cacodylate buffer (pH 7.4) for 2 h at room temperature. Samples were subsequently washed 3 × 10 min in cacodylate buffer and postfixed in 1% osmium tetroxide for 1 h. After 3 × 10 min washing in cacodylate buffer, samples were dehydrated in an ethanol series (30–100%, 10 min each) and pure acetone (2 × 10 min) and gradually embedded in Epon 812 resin (Serva). Sections (40–50 nm) were prepared with a Leica UC7 ultramicrotome, mounted on copper mesh grids, and contrasted with 1% uranyl acetate (7 min) and 3% lead citrate (3 min). Imaging was performed with a Tecnai G2 20 transmission electron microscope at 80 kV equipped with an FEI Eagle 4K CCD camera (Center for Anatomy and Cell Biology). Image processing was performed in Fiji[57] using the CLAHE filter (enhance local contrast).

SK-OV-3 = assay: Cell death by annexin V/propidium iodide stain (flow cytometry); assay type: cell-based, human; conditions: SK-OV-3, 10 μM, 24 h
Procedure: as §2

## O=S(=O)([O-])C(F)(F)F.[Ag+].c1ccc(-c2ccccn2)nc1.c1ccc(P(c2ccccc2)c2ccccc2)cc1 [Compound 1, [Ag(2,2′-bipy)(PPh3)][CF3SO3]]
MES-OV/CBP
  relative resistance (IC50 MES-OV/CBP divided by IC50 MES-OV): 1.0^n.s.
SK-OV-3/CBP
  relative resistance (IC50 SK-OV-3/CBP divided by IC50 SK-OV-3): 1.6^n.s.
HCT116 WT/OxR
  relative resistance (IC50 HCT116 WT/OxR divided by IC50 HCT116 WT): 0.7^n.s.
MES-OV cells [1]
  ROS levels (in words): significant and very strong elevation in ROS was found only in the 10 μM sample
[2]
  stability in PBS: an equilibrium is established between the parent complex and AgP2 and AgN2 species
MES-OV cells [3]
  cells with mitochondrial depolarization (low Δψ fraction): 50%
SK-OV-3 and MES-OV cells
  cell cycle distribution change: significant shift from the G0–G1 phase to the S phase
MES-OV cells [4]
  cytoplasmic vacuole formation (phase contrast): distinctly fewer vesicles of smaller and distinctive shapes
Recombinant rat TrxR
  TrxR inhibition strength relative to 7: 10 fold
MES-OV cells [5]
  vacuole diameter (TEM): 300–500 nm
SK-OV-3
  apoptosis induction (AV/PI): up to 100%
